Values joined by “and” are separate entries in the source; they are usually repeats but may differ in a detail not shown here. Equal entries are not always repeated.
What was measured:
[1] = Solubility of peptides in DMSO/D5W/5 mM succinate formulation; settings: pH 6
[2] = pH of peptide solutions in DMSO/D5W, with succinate, and with Hiltonol; format: physicochemical
[3] = Short-term room temperature stability of Pool 3 mixed with Hiltonol (RP-HPLC); format: physicochemical
Protocol: A peptide pool (Pool 3) consisting of the five peptides shown in Table 6 below was prepared by dissolution in DMSO and dilution with D5W/Succinate (2 mM) to 2 mg/ml and pooling to a final peptide concentration of 400 μg per ml and a final DMSO concentration of 4%. After preparation, peptides were filtered with a 25 mm Pall PES filter (Cat#4612) and dispensed into Nunc Cryo vials (#375418) in one ml aliquots.
Three samples were prepared by mixing 0.75 ml of Pool3 with 0.25 ml Hiltonol® as planned for the dosage form preparation. The samples were then left at room temperature for 0, 4 and 6 hours and analyzed by RP-HPLC (Table 7). […] As slight increase in a second peak associated with peptide CS6919 was noted, increasing from 14% to 17% and 18% at 4 and 6 hours, respectively. […] Recovery of all peptides was above 90%, indicating no breakdown and loss of any peptides in the final dosage form after 6 hour room temperature incubation.

[4] = Direct dissolution of peptides in D5W without DMSO; format: physicochemical; settings: <1 mg peptide
[5] = Peptide diluent matrix (precipitation of DMSO dissolved peptides in various liquids); format: physicochemical; parameters: key to Precipitation in diluent: Liposome / Precipitation in diluent: PBS pH 7.4 / Precipitation in diluent: Water / Precipitation in diluent: 10% Sucrose / Precipitation in diluent: D5W (5% Dextrose USP Grade Inj): P = precipitation; NP = no precipitation; settings: for Precipitation in diluent: 10% Sucrose: 10-20 μL DMSO dissolved peptide added to 10% Sucrose; for Precipitation in diluent: D5W (5% Dextrose USP Grade Inj): 10-20 μL DMSO dissolved peptide added to D5W; for Precipitation in diluent: Liposome: 10-20 μL DMSO dissolved peptide added to Liposome; for Precipitation in diluent: PBS pH 7.4: 10-20 μL DMSO dissolved peptide added to PBS pH 7.4; for Precipitation in diluent: Water: 10-20 μL DMSO dissolved peptide added to Water
Protocol: Additional peptide solubility conditions were tested. Peptides CS6709, CS6712, CS6720, CS6726, and CS6783 were weighed at approximately 10 mg each. The peptides were then dissolved in approximately 200 μL USP grade DMSO to obtain a 50 mg/mL concentration for each peptide. […] The sample appeared to be cloudy. Additional 50 μL increments of DMSO were added to Peptide CS6709 up to 400 μL; for a total of 600 μL of DMSO. […] To dilute the peptides to 400 μg, a PBS pH 7.4 solution without potassium was prepared. All 5 DMSO peptide samples (50 mg/mL) were placed in a single vial for dilution to 400 μg/mL. Each DMSO peptide was added to the vial at 40 μL, except for CS6709 which was at a concentration of 16.67 mg/mL. The volume of CS6709 added to the single vial was 120 μL. The samples were diluted to 400 μg by adding 4.72 mL PBS pH 7.4. Upon addition of the PBS pH 7.4, it was observed that one or more of the peptides had precipitated out. To determine which of the peptides precipitated, Applicants followed the matrix in Table 5 below using very small amounts (10-20 μL) of the DMSO dissolved peptides and adding these peptides to the various liquids.

H-VTLNDMKARQKALVRERERQLA-OH
solubility [1]: > 2000 µg/mL

H-AVRSPGSPLILEVGSGSGAIS-OH
solubility [1]: > 2000 µg/mL

H-GALGAVGATKVPRNQDWLGVSRQLRTKA-OH
solubility [1]: > 2000 µg/mL

H-VAGLAASGLHGSAWLVPGEQPVSGPHHGKQ-OH [CS6931]
pH of peptides in DMSO/D5W [2]: 3.80
pH of peptides in DMSO/D5W/5mM S. Succinate spike [2]: 6.42
pH of peptides in DMSO/D5W/5nnM Succinate and Hiltonol [2]: 6.66
% Impurity ([3]; Pool 3 + Hiltonol, 4 Hours RT): 3.02%
% Purity ([3]; Pool 3 + Hiltonol, 4 Hours RT): 96.98%
Main Peak ([3]; Pool 3 + Hiltonol, 4 Hours RT): 8523.53
Total Impurities ([3]; Pool 3 + Hiltonol, 4 Hours RT): 265.54
Total Peak ([3]; Pool 3 + Hiltonol, 4 Hours RT): 8789.07
% Impurity ([3]; Pool 3 + Hiltonol, 6 Hours RT): 3.21%
% Purity ([3]; Pool 3 + Hiltonol, 6 Hours RT): 96.79%
Main Peak ([3]; Pool 3 + Hiltonol, 6 Hours RT): 9387.81
Total Impurities ([3]; Pool 3 + Hiltonol, 6 Hours RT): 311.37
Total Peak ([3]; Pool 3 + Hiltonol, 6 Hours RT): 9699.18
% Impurity ([3]; T0 Pool 3 + Hiltonol, RP-HPLC): 2.16%
% Purity ([3]; T0 Pool 3 + Hiltonol, RP-HPLC): 97.84%
Main Peak ([3]; T0 Pool 3 + Hiltonol, RP-HPLC): 9014.82
Total Impurities ([3]; T0 Pool 3 + Hiltonol, RP-HPLC): 198.6
Total Peak ([3]; T0 Pool 3 + Hiltonol, RP-HPLC): 9213.42

H-DPNKYPVPENWLYKEAHQLFLE-OH
solubility [1]: > 2000 µg/mL

H-KLAWRGRISSSGCPSMTSPPSPMFGMTLHT-OH [CS6919]
pH of peptides in DMSO/D5W [2]: 4.38
pH of peptides in DMSO/D5W/5mM S. Succinate spike [2]: 6.74
pH of peptides in DMSO/D5W/5nnM Succinate and Hiltonol [2]: 6.99
% Impurity ([3]; Pool 3 + Hiltonol, 4 Hours RT): 17% and 17.09%
% Purity ([3]; Pool 3 + Hiltonol, 4 Hours RT): 82.91%
Main Peak ([3]; Pool 3 + Hiltonol, 4 Hours RT): 7238.56
Total Impurities ([3]; Pool 3 + Hiltonol, 4 Hours RT): 1492.4
Total Peak ([3]; Pool 3 + Hiltonol, 4 Hours RT): 8730.96
% Impurity ([3]; Pool 3 + Hiltonol, 6 Hours RT): 18% and 18.14%
% Purity ([3]; Pool 3 + Hiltonol, 6 Hours RT): 81.86%
Main Peak ([3]; Pool 3 + Hiltonol, 6 Hours RT): 7688.89
Total Impurities ([3]; Pool 3 + Hiltonol, 6 Hours RT): 1703.9
Total Peak ([3]; Pool 3 + Hiltonol, 6 Hours RT): 9392.79
% Impurity ([3]; T0 Pool 3 + Hiltonol, RP-HPLC): 14% and 13.9%
% Purity ([3]; T0 Pool 3 + Hiltonol, RP-HPLC): 86.1%
Main Peak ([3]; T0 Pool 3 + Hiltonol, RP-HPLC): 7786.28
Total Impurities ([3]; T0 Pool 3 + Hiltonol, RP-HPLC): 1256.72
Total Peak ([3]; T0 Pool 3 + Hiltonol, RP-HPLC): 9043

H-LDVLQRPLSPGNSEFLTATANYSK-OH
solubility [1]: < 2000 µg/mL

H-ASRALEEKKGNYVVTDHGSCVRA-OH
solubility [1]: > 2000 µg/mL

H-SKRGVGAKTLLLPDPFLFWPCLEGTRRSL-OH [CS6934]
pH of peptides in DMSO/D5W [2]: 3.86
pH of peptides in DMSO/D5W/5mM S. Succinate spike [2]: 6.57
pH of peptides in DMSO/D5W/5nnM Succinate and Hiltonol [2]: 6.79
% Impurity ([3]; Pool 3 + Hiltonol, 4 Hours RT): 3.06%
% Purity ([3]; Pool 3 + Hiltonol, 4 Hours RT): 96.94%
Main Peak ([3]; Pool 3 + Hiltonol, 4 Hours RT): 5842.22
Total Impurities ([3]; Pool 3 + Hiltonol, 4 Hours RT): 184.46
Total Peak ([3]; Pool 3 + Hiltonol, 4 Hours RT): 6026.68
% Impurity ([3]; Pool 3 + Hiltonol, 6 Hours RT): 3.41%
% Purity ([3]; Pool 3 + Hiltonol, 6 Hours RT): 96.59%
Main Peak ([3]; Pool 3 + Hiltonol, 6 Hours RT): 6268.16
Total Impurities ([3]; Pool 3 + Hiltonol, 6 Hours RT): 221.46
Total Peak ([3]; Pool 3 + Hiltonol, 6 Hours RT): 6489.62
% Impurity ([3]; T0 Pool 3 + Hiltonol, RP-HPLC): 3.83%
% Purity ([3]; T0 Pool 3 + Hiltonol, RP-HPLC): 96.17%
Main Peak ([3]; T0 Pool 3 + Hiltonol, RP-HPLC): 6147.14
Total Impurities ([3]; T0 Pool 3 + Hiltonol, RP-HPLC): 244.49
Total Peak ([3]; T0 Pool 3 + Hiltonol, RP-HPLC): 6391.63

H-HPEFANPDSMEYISDVVDEVIQN-OH
solubility [1]: > 2000 µg/mL

H-LCPASRALEEKKGNYVVTDHGS-OH
solubility [1]: > 2000 µg/mL

H-PAAGDFIRFRFFQLLRLERFF-OH
solubility [1]: < 2000 µg/mL

H-LVDQWRWGVFSGHTPPSRYNFDWWY-OH
solubility [1]: < 2000 µg/mL

H-PIDTSKTDPTVLLFMESQYSQLGQD-OH
solubility [1]: > 2000 µg/mL

H-ESKLFGDPDEFSLAHLLEPFRQYYL-OH
solubility [1]: < 2000 µg/mL

H-SHKLESIKEITNFKDAKQLL-OH
solubility [1]: > 2000 µg/mL

H-LAALCPASRALEEKKGNYVVTDH-OH
solubility [1]: > 2000 µg/mL

H-SPTEPSTKLPGFDSCGNTEIAERKIKRIYGGFK-OH [CS6720]
Dissolution directly in D5W without using DMSO [4]: could be dissolved directly in D5W
Precipitation in diluent: 10% Sucrose [5]: NP
Precipitation in diluent: D5W (5% Dextrose USP Grade Inj) [5]: NP
Precipitation in diluent: Liposome [5]: NP
Precipitation in diluent: PBS pH 7.4 [5]: NP
Precipitation in diluent: Water [5]: NP

H-SLPKSFKRKIFVVSATKGVPAGNSD-OH
solubility [1]: > 2000 µg/mL

H-LLTDRNTSGTTFTLLGVSDYPELQVPLFLVFLA-OH [CS6783]
pH of peptides in DMSO/D5W [2]: 3.96
Dissolution directly in D5W without using DMSO [4]: could not be dissolved
Precipitation in diluent: 10% Sucrose [5]: NP
Precipitation in diluent: D5W (5% Dextrose USP Grade Inj) [5]: NP
Precipitation in diluent: Liposome [5]: P
Precipitation in diluent: PBS pH 7.4 [5]: P
Precipitation in diluent: Water [5]: NP
Precipitation when PBS pH 7.4 added as diluent to the peptide mixture ([5]; dilution to 400 μg/mL): precipitate

H-PETGEIQVKTFLDREQRESYELKV-OH
solubility [1]: > 2000 µg/mL

H-AESAQRQGPNGGGEQSANEF-OH [CS7416]
pH of peptides in DMSO/D5W [2]: 3.91
pH of peptides in DMSO/D5W/5mM S. Succinate spike [2]: 6.31
pH of peptides in DMSO/D5W/5nnM Succinate and Hiltonol [2]: 6.54
% Impurity ([3]; Pool 3 + Hiltonol, 4 Hours RT): 2.56%
% Purity ([3]; Pool 3 + Hiltonol, 4 Hours RT): 97.44%
Main Peak ([3]; Pool 3 + Hiltonol, 4 Hours RT): 5669.85
Total Impurities ([3]; Pool 3 + Hiltonol, 4 Hours RT): 148.82
Total Peak ([3]; Pool 3 + Hiltonol, 4 Hours RT): 5818.67
% Impurity ([3]; Pool 3 + Hiltonol, 6 Hours RT): 2.1%
% Purity ([3]; Pool 3 + Hiltonol, 6 Hours RT): 97.9%
Main Peak ([3]; Pool 3 + Hiltonol, 6 Hours RT): 6197.48
Total Impurities ([3]; Pool 3 + Hiltonol, 6 Hours RT): 132.83
Total Peak ([3]; Pool 3 + Hiltonol, 6 Hours RT): 6330.31
% Impurity ([3]; T0 Pool 3 + Hiltonol, RP-HPLC): 2.35%
% Purity ([3]; T0 Pool 3 + Hiltonol, RP-HPLC): 97.65%
Main Peak ([3]; T0 Pool 3 + Hiltonol, RP-HPLC): 5988.42
Total Impurities ([3]; T0 Pool 3 + Hiltonol, RP-HPLC): 143.98
Total Peak ([3]; T0 Pool 3 + Hiltonol, RP-HPLC): 6132.4

H-DSAVDKGHPNRSALSLTPGLRIGPSGIPQAGLG-OH [CS6726]
Dissolution directly in D5W without using DMSO [4]: could be dissolved directly in D5W
Precipitation in diluent: 10% Sucrose [5]: NP
Precipitation in diluent: D5W (5% Dextrose USP Grade Inj) [5]: NP
Precipitation in diluent: Liposome [5]: NP
Precipitation in diluent: PBS pH 7.4 [5]: NP
Precipitation in diluent: Water [5]: NP

H-LAALCPASRALEEKKGNYVVTDHGS-OH
solubility [1]: > 2000 µg/mL

H-ETYSRSFYPEHSIKEWLIGMELVFV-OH
solubility [1]: < 2000 µg/mL

H-LKDSNSWPPSNKRGFDTEDAHKSNATPVP-OH [CS6712]
Dissolution directly in D5W without using DMSO [4]: could be dissolved directly in D5W
Precipitation in diluent: 10% Sucrose [5]: NP
Precipitation in diluent: D5W (5% Dextrose USP Grade Inj) [5]: NP
Precipitation in diluent: Liposome [5]: NP
Precipitation in diluent: PBS pH 7.4 [5]: NP
Precipitation in diluent: Water [5]: NP

Reference: patent US20190060428A1, “FORMULATIONS FOR NEOPLASIA VACCINES AND METHODS OF PREPARING THEREOF” (The Broad Institue Inc., priority 2015, published 2019)
